The values that follow come from US9416141B2 (University of Washington through its Center for …, priority 2012, dated 2016).

Where a name gives a salt, the structure may show the parent alone.

The assay deals with hair cells. Nature of the assay: Hair cell toxicity assay in zebrafish (neomycin-induced hair cell death, DASPEI staining of neuromasts). It counts as in vivo. The following applies: Danio rerio; for Emax at 2.8 µM: maximum observed @ 2.8 μM test compound; for Emax at 2.8 µM / Emax at 8.3 µM / Emax at 25 µM: 200 micromolar neomycin, read-out: Max HC Protection (HCmax, % hair cell survival); for EC50: zebrafish larvae 5-7 dpf, 1 h pre-treatment, then 200 micromolar neomycin + test compound 30 min, read-out: HC50 (concentration that would produce 50% hair cell survival); for Emax at 8.3 µM: maximum observed @ 8.3 μM test compound; for Emax at 25 µM: maximum observed @ 25 μM test compound. The method in brief: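 Hair cell survival, as % of untreated controls, came from DASPEI scoring (0-2 each, ten neuromasts on one side) in 5-7 dpf larvae. These had 1 h compound pre-exposure (0.010-25 μM), then 200 μM neomycin with compound for 30 min. HCmax is peak protection; HC50 interpolated between flanking concentrations only when ≥50% survive.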

In the case of `CC(C)NC(=O)CC[N+]1(C)CCc2c(sc(NC(=O)Nc3ccc(Cl)cc3)c2C(N)=O)C1` (stereo not shown) [Example 164, 3-Carbamoyl-2-[3-(4-chlorophenyl)ureido]-6-[3-(isopropylamino)-3-oxopropyl]-6-methyl-4,5,6,7-tetrahydrothieno[2,3-c]pyridin-6-ium trifluoroacetate], the Emax at 2.8 µM is 60% and the EC50 was 1 to 10 µM. As for `NC(=O)c1c(NC(=O)Nc2ccc(Cl)cc2)sc2c1CC1CCC2N1CC1CCCCC1` (racemic) [Example 131, (+/−)-2-[3-(4-chlorophenyl)ureido]-9-(cyclohexylmethyl)-5,6,7,8-tetrahydro-4H-5,8-epiminocyclohepta[b]thiophene-3-carboxamide hydrochloride], the Emax at 2.8 µM was found to be 88% and the EC50 was less than 1 µM. For `CC(C)(C)OC(=O)C1CC([N+]2(C)CCc3c(sc(NC(=O)Nc4ccc(Cl)cc4)c3C(N)=O)C2)C1` (stereo not shown) [Example 163, 6-[3-(tert-Butoxycarbonyl)cyclobutyl]-3-carbamoyl-2-[3-(4-chlorophenyl)ureido]-6-methyl-4,5,6,7-tetrahydrothieno[2,3-c]pyridin-6-ium iodide], the Emax at 8.3 µM was found to be 88% and the EC50 is less than 1 µM. With `NC(=O)c1c(NC(=O)Nc2ccc3ccccc3c2)sc2c1CCN(CCCCO)C2` [Example 37, 6-(4-Hydroxybutyl)-2-[3-(naphthalen-2-yl)ureido]-4,5,6,7-tetrahydrothieno[2,3-c]pyridine-3-carboxamide hydrochloride], the Emax at 25 µM is 105% and the EC50 was 1 to 10 µM.

On to `CC(C(=O)O)N1CCc2c(sc(NC(=O)Nc3ccc(Cl)cc3)c2C(N)=O)C1` (racemic) [Example 62, (+/−)-2-{3-Carbamoyl-2-[3-(4-chlorophenyl)ureido]-4,5-dihydrothieno[2,3-c]pyridin-6(7H)-yl}propanoic acid hydrochloride], for which the Emax at 25 µM came out at 29%.

`C[N+]1(CC(F)(F)F)CCc2c(sc(NC(=O)Nc3ccc(Cl)cc3)c2C(N)=O)C1` (stereo not shown) [Example 192, 3-Carbamoyl-2-[3-(4-chlorophenyl)ureido]-6-methyl-6-(2,2,2-trifluoroethyl)-4,5,6,7-tetrahydrothieno[2,3-c]pyridin-6-ium iodide]: the Emax at 25 µM turned out to be 88% and the EC50 was less than 1 µM. Taken in the same sequence, the figures for `CCN1C2CCC1c1sc(NC(=O)Nc3ccc(Cl)cc3)c(C(N)=O)c1C2` (racemic) [Example 133, (+/−)-2-[3-(4-Chlorophenyl)ureido]-9-ethyl-5,6,7,8-tetrahydro-4H-5,8-epiminocyclohepta[b]thiophene-3-carboxamide hydrochloride] were 76% and less than 1 µM.

Turning to `CC(C)(C)CN1CCc2c(sc(NC(=O)Nc3ccc4ccccc4c3)c2C(N)=O)C1` [Example 36, 2-[3-(Naphthalen-2-yl)ureido]-6-neopentyl-4,5,6,7-tetrahydrothieno[2,3-c]pyridine-3-carboxamide hydrochloride], the Emax at 8.3 µM amounted to 13%.

As to `CC[N+]1(CC2CCC2)CCc2c(sc(NC(=O)Nc3ccc(Cl)cc3)c2C(N)=O)C1` (stereo not shown) [Example 190, 3-carbamoyl-2-[3-(4-chlorophenyl)ureido]-6-(cyclobutylmethyl)-6-ethyl-4,5,6,7-tetrahydrothieno[2,3-c]pyridin-6-ium chloride], the Emax at 2.8 µM stood at 100% and the EC50 is less than 1 µM. With `CN1C2CCC1c1sc(NC(=O)Nc3ccc(Cl)cc3)c(C(N)=O)c1C2` (racemic) [Example 125, (+/−)-2-[3-(4-chlorophenyl)ureido)-9-methyl-5,6,7,8-tetrahydro-4H-5,8-epiminocyclohepta[b]thiophene-3-carboxamide hydrochloride], the Emax at 8.3 µM was 99% and the EC50 is less than 1 µM. `NC(=O)CCN1CCc2c(sc(NC(=O)Nc3ccc(Cl)cc3)c2C(N)=O)C1` [Example 50, 6-(3-amino-3-oxopropyl)-2-[3-(4-chlorophenyl)ureido]-4,5,6,7-tetrahydrothieno[2,3-c]pyridine-3-carboxamide hydrochloride]: the Emax at 25 µM stood at 82% and the EC50 lay within 1 to 10 µM. As to `CCN1CCc2c(sc(NC(=O)Nc3ccc(F)c(F)c3)c2C(N)=O)C1` [Example 70, 2-[3-(3,4-Difluorophenyl)ureido]-6-ethyl-4,5,6,7-tetrahydrothieno[2,3-c]pyridine-3-carboxamide hydrochloride], the Emax at 25 µM was found to be 64% and the EC50 lay within 1 to 10 µM. Taken in the same sequence, the figures for `CCN1CCc2c(sc(NC(=O)Nc3ccc(Cl)cc3)c2C(=O)N2CCOCC2)C1` [Example 95, 1-(4-chlorophenyl)-3-[6-ethyl-3-(morpholine-4-carbonyl)-4,5,6,7-tetrahydrothieno[2,3-c]pyridin-2-yl]urea hydrochloride] were 78% and 1 to 10 µM.

In the case of `CC[N+]1(C)CCc2c(ccc(NC(=O)Nc3ccc(Cl)cc3)c2C(N)=O)C1` (stereo not shown) [Example 172, 5-Carbamoyl-6-[3-(4-chlorophenyl)ureido]-2-ethyl-2-methyl-1,2,3,4-tetrahydroisoquinolin-2-ium iodide], the Emax at 25 µM is 66% and the EC50 is more than 10 µM. With `C[N+]12CCCCC1c1sc(NC(=O)Nc3ccc(Cl)cc3)c(C(N)=O)c1CC2` (racemic) [Example 178, (+/−)-3-Carbamoyl-2-[3-(4-chlorophenyl)ureido]-6-methyl-4,5,6,7,8,9,10,10a-octahydrothieno[2,3-a]quinolizin-6-ium chloride], the Emax at 25 µM is 102% and the EC50 was in the range of 1 to 10 µM. The like results for `CCN1CCc2c(sc(NC(=O)Nc3ccc(Cl)c(C)c3)c2C(N)=O)C1` [Example 64, 2-[3-(4-chloro-3-methylphenyl)ureido]-6-ethyl-4,5,6,7-tetrahydrothieno[2,3-c]pyridine-3-carboxamide hydrochloride] were, in that order, 77% and 1 to 10 µM. Turning to `CC[N+]1(C)CCc2sc(NC(=O)Nc3ccc(Cl)cc3)c(C(N)=O)c2CC1` (stereo not shown) [Example 174, 3-Carbamoyl-2-[3-(4-chlorophenyl)ureido]-6-ethyl-6-methyl-5,6,7,8-tetrahydro-4H-thieno[2,3-d]azepin-6-ium iodide], the Emax at 25 µM was found to be 74% and the EC50 lay in the range of 1 to 10 µM. The like results for `CCN1CCc2c(sc(NC(=O)Nc3ccc(C)c(Cl)c3)c2C(N)=O)C1` [Example 83, 2-[3-(3-Chloro-4-methylphenyl)ureido]-6-ethyl-4,5,6,7-tetrahydrothieno[2,3-c]pyridine-3-carboxamide hydrochloride] were, in that order, 63% and 1 to 10 µM. With `CCN1CCc2c(ccc(NC(=O)Nc3ccc(Cl)cc3)c2C(N)=O)C1` [Example 112, 6-[3-(4-chlorophenyl)ureido]-2-ethyl-1,2,3,4-tetrahydroisoquinoline-5-carboxamide hydrochloride], the Emax at 25 µM is 49%. As to `C[N+]1(CCO)CCc2c(sc(NC(=O)Nc3ccc(Cl)cc3)c2C(N)=O)C1` (stereo not shown) [Example 144, 3-Carbamoyl-2-[3-(4-chlorophenyl)ureido]-6-(2-hydroxyethyl)-6-methyl-4,5,6,7-tetrahydrothieno[2,3-c]pyridin-6-ium iodide], the Emax at 25 µM is 78% and the EC50 fell in the range of 1 to 10 µM.

Turning to `NC(=O)c1c(NC(=O)Nc2ccc(Cl)cc2)sc2c1CCN(CC13CC4CC(CC(C4)C1)C3)C2` [Example 49, 6-[(3r,5r,7r)-Adamantan-1-ylmethyl]-2-[3-(4-chlorophenyl)ureido]-4,5,6,7-tetrahydrothieno[2,3-c]pyridine-3-carboxamide hydrochloride], the Emax at 2.8 µM was determined as 64% and the EC50 was in the range of 1 to 10 µM. As for `CCN1CCc2c(sc(NC(=O)Nc3ccc(OC)cc3)c2C(N)=O)C1` [Example 230, 6-ethyl-2-{[(4-methoxyphenyl)carbamoyl]amino}-4H,5H,6H,7H-thieno[2,3-c]pyridine-3-carboxamide], the Emax at 25 µM amounted to 48%.

Consider `CC(C)(C)OC(=O)CCCCN1CCc2c(sc(NC(=O)Nc3ccc(Cl)cc3)c2C(N)=O)C1` [Example 19, tert-Butyl 5-{3-carbamoyl-2-[3-(4-chlorophenyl)ureido]-4,5-dihydrothieno[2,3-c]pyridin-6(7H)-yl}pentanoate], for which the Emax at 8.3 µM was 68% and the EC50 was less than 1 µM.

As for `CC(C)N1CCc2c(sc(NC(=O)Nc3ccc(Cl)cc3)c2C(N)=O)C1` [Example 2, 2-[3-(4-Chlorophenyl)ureido]-6-isopropyl-4,5,6,7-tetrahydrothieno[2,3-c]pyridine-3-carboxamide hydrochloride], the Emax at 25 µM came to 84% and the EC50 was in the range of 1 to 10 µM. Taken in the same sequence, the figures for `CCN1CCc2c(sc(NC(=O)Nc3ccc(Oc4ccccc4)cc3)c2C(N)=O)C1` [Example 225, 6-ethyl-2-{[(4-phenoxyphenyl)carbamoyl]amino}-4H,5H,6H,7H-thieno[2,3-c]pyridine-3-carboxamide] were 91% and 1 to 10 µM. On to `CCN1CCc2c(sc(NC(N)=O)c2C(N)=O)C1` [Example 107, 6-ethyl-2-ureido-4,5,6,7-tetrahydrothieno[2,3-c]pyridine-3-carboxamide hydrochloride], for which the Emax at 2.8 µM was determined as 36%. For `CC(C)(C)OC(=O)CCC[N+]1(C)CCc2c(sc(NC(=O)Nc3ccc(Cl)cc3)c2C(N)=O)C1` (stereo not shown) [Example 154, 6-(4-tert-Butoxy-4-oxobutyl)-3-carbamoyl-2-[3-(4-chlorophenyl)ureido]-6-methyl-4,5,6,7-tetrahydrothieno[2,3-c]pyridin-6-ium trifluoroacetate], the Emax at 2.8 µM came out at 96% and the EC50 is less than 1 µM.
